Source: patent US20260028364A1, “CATIONIC CHROMENONES AND THEIR USE IN ONCOLOGY” (FLORATEK PHARMA S.A., priority 2022, published 2026)

Columns and labels:
[1] = test system: Raji; test: CellTiter-Glo cell viability, Raji; format: cell-based; details: Homo sapiens; Raji cells, 72 h with compound
Description: Antitumor activity against a panel of cancer cell lines Antitumor activity of the compounds was assessed by using the CellTiter-Glow® Luminescent Cell Viability assay (Promega #G7572) according to the manufacturer's instructions. The compounds were tested at 5 or 6 concentrations in 1:2 dilution increments (highest concentration 10 µM) in triplicate well conditions.
Tumor cells were grown at 37° C. in a humidified atmosphere with 5% CO2 in RPMI 1640 or DMEM medium, supplemented with 10% (v/v) fetal calf serum and 50 μg/ml gentamicin for up to 20 passages, and were passaged once or twice weekly. Cells were harvested using TrypLE or PBS buffer containing 1 mM EDTA, and the percentage of viable cells is determined using a cell counter.
Cells were harvested from exponential phase cultures, counted and plated in 96 well flat-bottom microtiter plates at a cell density depending on the cell line's growth rate (4,000-20,000 cells/well depending on the cell line's growth rate) in RPMI 1640 or DMEM medium supplemented with 10% (v/v) fetal calf serum and 50 μg/ml gentamicin (140 μl/well). Cultures were incubated at 37° C. and 5% CO2 in a humidified atmosphere. […] Viability of cells was quantified by the CellTiter-Glow® Luminescent Cell Viability assay (Promega #G7572). Luminescence was measured with the microplate luminometer (En Vision Perkin Elmer). […]

[2] = test system: JAK/STAT; test: SelectScreen CellSensor pathway inhibition, JAK/STAT; format: cell-based; details: Homo sapiens; ISRE-bla Jurkat, stimulus IFN-alpha
Description: (§1) Inhibition of various cellular pathways known to be involved in malignancy was tested using the SelectScreen Cell-based Pathway Profiling GeneBLAzer™ cell signaling pathway specific CellSensor™ cell lines ((Thermo Fisher). The assay is based on a beta-lactamase reporter activity which is modulated and can be measured quantitatively and selectively with the LiveBLAzer™-FRET B/G Loading Substrate. SelectScreen Cell-Based Pathway Profiling Service uses XLfit from IDBS. The dose response curve is curve fit to model number 205 (sigmoidal dose-response model). Custom logic was built by Thermo Fisher for the data analysis tool to address the different compound characteristics that can be observed with functional assays.
JAK/STAT—ISRE-bla HEK 293T—Inhibitor Screen, Activated by IFN-Alpha
ISRE-bla HEK 293T cells are thawed and resuspended in Assay Media (OPTI-MEM, 0.5% dialyzed FBS, 0.1 mM NEAA, 1 mM Sodium Pyruvate, 100 U/mL/[…] Pen/Strep) to a concentration of 625,000 cells/mL. 32 μL of cell suspension is added to each well of a 384-well TC-Treated assay plate. Cells in Assay Media are incubated for 16-24 hours in the plate at 37° C./5% CO2 in a humidified incubator. […] 4 μL of 10× control activator IFN-alpha at the pre-determined EC80 concentration is added to wells containing the control inhibitor or compounds. […] The plate is read on a fluorescence plate reader.

[3] = test system: Wnt/Beta-Catenin; test: SelectScreen CellSensor pathway inhibition, Wnt/Beta-Catenin; format: cell-based; details: Homo sapiens, HCT-116; LEF-TCF-bla HCT116, no stimulus (constitutively activated)
Description: as §1
Wnt/Beta-Catenin—LEF-TCF-bla HCT116—Inhibitor Screen, Constitutively Activated
LEF-TCF-bla HCT116 cells are thawed and resuspended in Assay Media (OPTI-MEM, 0.5% dialyzed FBS, 0.1 mM NEAA, 1 mM Sodium Pyruvate, 100 U/mL/100 μg/mL Pen/Strep) to a concentration of 312,500 cells/mL. 32 μL of cell suspension is added to each well of a 384-well Poly-D-Lysine assay plate. Cells in Assay Media are incubated for 16-24 hours in the plate at 37° C./5% CO2 in a humidified incubator. 4 μL of a 10× serial dilution of ICG-001 (control inhibitor starting concentration, 25,000 nM) or compounds are added to appropriate wells of the plate. […] The plate is read on a fluorescence plate reader.

[4] = test system: A2058 melanoma tumor cells; test: In vivo tumour inhibition, A2058 melanoma xenograft; design: species or system Balb-c/nude mouse
Description: The A2058 tumor cells were maintained in vitro in DMEM medium supplemented with 10% fetal bovine serum and 1% Anti-Anti at 37° C. in an atmosphere of 5% CO2 in air. The tumor cells were routinely subcultured twice weekly.
Each Balb-c/nude mouse was inoculated subcutaneously at the right flank with A2058 melanoma tumor cells (5×10^6+Matrigel) in 0.2 ml of PBS for tumor development. 10 animals per group were randomized when the average tumor volume reached 74 mm^3. Test compounds were prepared as DMSO stocks and diluted in the injection vehicle before administration. The treatment was administered every other day (QOD) as a peritumoral injection. Vehicle composition was 4% DMSO, 5% ethanol, 20% PEG200, 71% saline. Dosing volume for all groups: 5 mL/kg.
Tumor volume was measured twice weekly in two dimensions using a caliper, and the volume was expressed in mm^3 using the formula: V=0.5a×b^2 where a and b are the long and short diameters of the tumor, respectively. The tumor size was then used for calculations of T/C value: The T/C value (in percent) is an indication of antitumor effectiveness; T and Care the mean volumes of the treated and control groups, respectively, on a given day.
One-way ANOVA was performed to compare tumor volume among treated groups and vehicle group, all data were analyzed using GraphPad Prism 5.0. p<0.05 was considered to be statistically significant.

[5] = 16 mg/kg peritumoral QOD, 6 injections, day 20 after treatment start

- IC50 [1]: 530 nM
- IC50 [2]: 360 nM
- IC50 [3]: 970 nM
Compound: COc1ccc2c(=O)c(-c3ccc(CCCC[P+](c4ccccc4)(c4ccccc4)c4ccccc4)cc3)coc2c1OC.[Br-] [SND470, (4-(4-(7,8-Dimethoxy-4-oxo-4H-chromen-3-yl)phenyl)butyl)triphenylphosphonium bromide]
- T/C [4, 5]: 39.2%
- TGI [4, 5]: 62.8%
- Tumor Volume ([4]; 16 mg/kg peritumoral QOD, 6 injections, day 20 after treatment start, mean ± SEM): 886 ± 127 mm^3
- activity in inhibiting A2058 melanoma cell line in vivo ([4]; nude mouse xenograft model of melanoma): significant activity
